{"source": "ChEMBL document CHEMBL1201862", "about": "“PubChem BioAssay data set” (2004)", "key": {"[1]": {"biological_target": "Lysine-specific demethylase 4C (Homo sapiens, UniProt Q9H3R0)", "test": "GASC-1 (JMJD2C) histone demethylase inhibitors, dose response, biochemical, DELFIA europium, cherry-picked samples (AID 488835)", "assay_type": "functional"}, "Cytochrome P450 2C19": {"biological_target": "Cytochrome P450 2C19 (Homo sapiens, UniProt P33261)", "sequence (P33261 whole entry)": "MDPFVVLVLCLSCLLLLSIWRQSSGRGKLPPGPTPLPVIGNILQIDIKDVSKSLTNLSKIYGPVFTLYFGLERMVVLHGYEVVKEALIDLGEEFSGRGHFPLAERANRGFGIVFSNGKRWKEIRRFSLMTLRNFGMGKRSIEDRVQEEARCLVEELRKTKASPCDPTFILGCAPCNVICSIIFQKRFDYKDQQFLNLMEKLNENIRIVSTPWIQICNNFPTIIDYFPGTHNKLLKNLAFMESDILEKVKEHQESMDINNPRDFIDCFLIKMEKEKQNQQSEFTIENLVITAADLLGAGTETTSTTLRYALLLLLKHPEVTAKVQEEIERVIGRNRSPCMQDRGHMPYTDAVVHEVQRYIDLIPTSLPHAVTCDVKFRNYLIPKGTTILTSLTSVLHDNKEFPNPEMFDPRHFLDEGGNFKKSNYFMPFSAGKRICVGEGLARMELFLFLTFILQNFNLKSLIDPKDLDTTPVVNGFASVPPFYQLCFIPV", "test": "Cytochrome panel assay with activity outcomes. Panel member name: p450-cyp2c19 Compounds with AC50 equal or less than 10 uM are considered active", "assay_type": "functional", "conditions": "read-out: AC50"}, "[2]": {"biological_target": "T1, Short transient receptor potential channel 4 (Mus musculus, UniProt Q9QUQ5)", "T1 sequence (Q9QUQ5 whole entry)": "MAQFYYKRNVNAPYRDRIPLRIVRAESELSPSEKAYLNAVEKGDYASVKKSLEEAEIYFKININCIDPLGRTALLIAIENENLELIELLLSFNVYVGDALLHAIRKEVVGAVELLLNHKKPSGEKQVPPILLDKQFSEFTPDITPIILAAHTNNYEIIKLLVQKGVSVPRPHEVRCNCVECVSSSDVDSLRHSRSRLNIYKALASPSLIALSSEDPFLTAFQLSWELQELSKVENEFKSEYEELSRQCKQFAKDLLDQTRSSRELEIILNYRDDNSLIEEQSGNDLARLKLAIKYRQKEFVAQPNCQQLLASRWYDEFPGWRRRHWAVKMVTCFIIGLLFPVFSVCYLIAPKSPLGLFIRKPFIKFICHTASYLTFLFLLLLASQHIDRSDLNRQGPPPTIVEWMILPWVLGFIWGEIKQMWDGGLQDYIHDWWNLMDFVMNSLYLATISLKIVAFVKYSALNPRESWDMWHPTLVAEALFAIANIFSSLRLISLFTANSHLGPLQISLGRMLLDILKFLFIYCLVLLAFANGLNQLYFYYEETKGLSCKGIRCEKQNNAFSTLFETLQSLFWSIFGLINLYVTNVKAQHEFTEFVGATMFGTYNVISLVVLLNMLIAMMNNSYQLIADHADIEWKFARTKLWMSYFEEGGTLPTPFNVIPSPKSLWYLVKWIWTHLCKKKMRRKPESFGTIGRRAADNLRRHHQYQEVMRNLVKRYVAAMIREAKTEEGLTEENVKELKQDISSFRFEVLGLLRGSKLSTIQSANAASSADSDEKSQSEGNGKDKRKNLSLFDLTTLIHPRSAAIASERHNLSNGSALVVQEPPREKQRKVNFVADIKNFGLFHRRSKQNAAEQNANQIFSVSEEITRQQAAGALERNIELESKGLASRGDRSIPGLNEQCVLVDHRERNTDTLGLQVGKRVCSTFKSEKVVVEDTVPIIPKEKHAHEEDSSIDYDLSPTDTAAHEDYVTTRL", "test": "mouse TRPC4 channel inhibitors, dose response, cell-based, HEK293 TRPC4/mu-opioid, Fluo-4 calcium (AID 434942);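 note: potency of inhibitors blocking the TRPC4 calcium response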", "assay_type": "functional"}, "Mu-type opioid receptor": {"biological_target": "Mu-type opioid receptor (Homo sapiens, UniProt P35372)", "test": "(§1) Counterscreen for agonists of heterodimerization of the mu 1 (OPRM1) and delta 1 (OPRD1) opioid receptors: Luminescence-based cell-based high throughput dose response assay to identify agonists of OPRM1 homodimerization.", "assay_type": "functional"}, "[3]": {"biological_target": "5-hydroxytryptamine receptor 5A (Homo sapiens, UniProt P47898)", "test": "Counterscreen for agonists of OPRM1-OPRD1 heterodimerization: luminescence-based cell-based high throughput dose response assay to identify agonists of 5-hydroxytryptamine (serotonin) 5A receptor (HTR5A). [Related pubchem assays (depositor defined):AID504326, AID504355, AID504692, AID504904, AID504905]", "assay_type": "functional"}, "[4]": {"biological_target": "T1, Short transient receptor potential channel 4", "test": "mouse TRPC4 channel activators, dose response, cell-based, HEK293 TRPC4/mu-opioid, Fluo-4 calcium (AID 434937)", "assay_type": "functional"}, "[5]": {"biological_target": "Delta-type opioid receptor (Homo sapiens, UniProt P41143)", "test": "as §1, with “of OPRD1” for “of OPRM1”, “homodimerization. [Related pubchem assays (depositor defined):AID504326, AID504355, AID504692, AID504904, AID504905]” for “homodimerization.”", "assay_type": "functional"}, "Cytochrome P450 3A4": {"biological_target": "Cytochrome P450 3A4 (Homo sapiens, UniProt P08684)"}, "[6]": {"biological_target": "T2, Dual specificity protein phosphatase 6 (Rattus norvegicus, UniProt Q64346)", "T2 sequence (Q64346 whole entry)": "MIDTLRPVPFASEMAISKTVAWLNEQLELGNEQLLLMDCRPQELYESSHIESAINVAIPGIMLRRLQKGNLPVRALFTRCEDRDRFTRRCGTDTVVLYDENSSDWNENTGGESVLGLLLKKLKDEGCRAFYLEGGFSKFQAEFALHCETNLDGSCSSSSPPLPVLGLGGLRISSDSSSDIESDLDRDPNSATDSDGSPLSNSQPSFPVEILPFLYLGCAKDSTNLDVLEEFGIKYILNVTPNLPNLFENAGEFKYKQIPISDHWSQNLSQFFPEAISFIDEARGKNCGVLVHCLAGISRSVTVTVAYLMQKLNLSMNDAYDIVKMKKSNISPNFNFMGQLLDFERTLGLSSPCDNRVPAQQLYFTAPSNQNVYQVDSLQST", "test": "MKP-3 phosphatase inhibitors, primary screen, biochemical, rat enzyme, in vitro (AID 425)"}, "[7]": {"biological_target": "T3, Voltage-gated N-type calcium channel alpha-1B subunit/Amyloid beta A4 precursor protein-binding family A member 1 (Homo sapiens, UniProt Q00975+Q02410)", "T3 sequence (Q00975 whole entry)": "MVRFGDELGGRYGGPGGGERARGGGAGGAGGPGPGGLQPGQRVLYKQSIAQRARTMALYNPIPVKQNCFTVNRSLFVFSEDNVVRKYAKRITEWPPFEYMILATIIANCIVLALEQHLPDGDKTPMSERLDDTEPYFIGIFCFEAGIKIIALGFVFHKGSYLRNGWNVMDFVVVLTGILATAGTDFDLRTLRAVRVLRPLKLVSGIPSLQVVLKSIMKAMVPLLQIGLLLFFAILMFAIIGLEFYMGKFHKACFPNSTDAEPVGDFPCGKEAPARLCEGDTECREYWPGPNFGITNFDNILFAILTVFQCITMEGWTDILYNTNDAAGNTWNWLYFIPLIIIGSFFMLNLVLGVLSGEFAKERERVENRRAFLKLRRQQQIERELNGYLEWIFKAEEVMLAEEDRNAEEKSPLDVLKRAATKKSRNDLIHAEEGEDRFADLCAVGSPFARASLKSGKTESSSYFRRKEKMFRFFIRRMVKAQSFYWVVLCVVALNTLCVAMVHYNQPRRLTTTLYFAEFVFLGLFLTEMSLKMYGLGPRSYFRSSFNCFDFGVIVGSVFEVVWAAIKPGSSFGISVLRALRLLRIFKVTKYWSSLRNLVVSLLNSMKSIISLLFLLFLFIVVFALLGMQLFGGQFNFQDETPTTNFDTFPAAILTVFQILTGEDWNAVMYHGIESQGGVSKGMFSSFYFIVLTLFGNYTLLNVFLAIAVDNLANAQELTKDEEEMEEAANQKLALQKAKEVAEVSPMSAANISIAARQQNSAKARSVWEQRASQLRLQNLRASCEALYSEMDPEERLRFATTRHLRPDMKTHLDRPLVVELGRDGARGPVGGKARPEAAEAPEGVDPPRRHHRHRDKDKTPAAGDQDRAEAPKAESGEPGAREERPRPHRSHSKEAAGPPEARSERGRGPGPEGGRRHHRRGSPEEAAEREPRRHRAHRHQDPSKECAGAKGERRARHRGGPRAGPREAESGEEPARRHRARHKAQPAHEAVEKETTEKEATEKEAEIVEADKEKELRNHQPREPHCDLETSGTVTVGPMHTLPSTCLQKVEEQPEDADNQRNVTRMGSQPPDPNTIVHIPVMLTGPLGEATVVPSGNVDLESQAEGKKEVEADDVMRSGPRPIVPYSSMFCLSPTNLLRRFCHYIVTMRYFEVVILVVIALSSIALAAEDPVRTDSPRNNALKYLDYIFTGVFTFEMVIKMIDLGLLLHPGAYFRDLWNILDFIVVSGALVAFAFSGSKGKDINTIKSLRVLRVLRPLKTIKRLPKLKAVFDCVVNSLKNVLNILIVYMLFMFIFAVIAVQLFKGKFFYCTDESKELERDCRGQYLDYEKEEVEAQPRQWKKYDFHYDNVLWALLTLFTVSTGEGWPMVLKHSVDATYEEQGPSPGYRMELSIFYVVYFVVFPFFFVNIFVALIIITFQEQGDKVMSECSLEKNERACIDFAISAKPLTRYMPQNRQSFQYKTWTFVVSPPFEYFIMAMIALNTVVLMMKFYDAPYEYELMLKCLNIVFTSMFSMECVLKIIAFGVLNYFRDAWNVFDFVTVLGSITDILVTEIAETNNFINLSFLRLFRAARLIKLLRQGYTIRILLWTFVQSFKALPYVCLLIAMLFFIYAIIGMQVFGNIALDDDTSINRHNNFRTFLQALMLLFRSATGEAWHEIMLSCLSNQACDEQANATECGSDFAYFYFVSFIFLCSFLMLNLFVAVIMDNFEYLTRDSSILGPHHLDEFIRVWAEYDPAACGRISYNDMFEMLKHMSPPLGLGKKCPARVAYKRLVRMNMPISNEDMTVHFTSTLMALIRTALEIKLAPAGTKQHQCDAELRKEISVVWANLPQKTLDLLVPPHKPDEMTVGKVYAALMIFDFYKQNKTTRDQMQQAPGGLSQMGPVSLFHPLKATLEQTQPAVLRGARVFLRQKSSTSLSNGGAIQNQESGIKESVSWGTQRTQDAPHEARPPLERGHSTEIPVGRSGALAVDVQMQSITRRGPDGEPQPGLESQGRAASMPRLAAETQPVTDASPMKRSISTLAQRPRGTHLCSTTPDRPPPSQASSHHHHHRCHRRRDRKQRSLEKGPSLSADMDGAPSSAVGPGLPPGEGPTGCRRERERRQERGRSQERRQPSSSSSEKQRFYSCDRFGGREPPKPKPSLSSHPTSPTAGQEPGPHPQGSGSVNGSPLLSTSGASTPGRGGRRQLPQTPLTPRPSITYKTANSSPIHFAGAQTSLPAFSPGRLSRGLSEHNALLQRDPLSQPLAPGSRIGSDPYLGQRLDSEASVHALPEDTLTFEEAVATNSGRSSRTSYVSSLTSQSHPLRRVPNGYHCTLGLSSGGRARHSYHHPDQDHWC", "T3 sequence (Q02410 whole entry)": "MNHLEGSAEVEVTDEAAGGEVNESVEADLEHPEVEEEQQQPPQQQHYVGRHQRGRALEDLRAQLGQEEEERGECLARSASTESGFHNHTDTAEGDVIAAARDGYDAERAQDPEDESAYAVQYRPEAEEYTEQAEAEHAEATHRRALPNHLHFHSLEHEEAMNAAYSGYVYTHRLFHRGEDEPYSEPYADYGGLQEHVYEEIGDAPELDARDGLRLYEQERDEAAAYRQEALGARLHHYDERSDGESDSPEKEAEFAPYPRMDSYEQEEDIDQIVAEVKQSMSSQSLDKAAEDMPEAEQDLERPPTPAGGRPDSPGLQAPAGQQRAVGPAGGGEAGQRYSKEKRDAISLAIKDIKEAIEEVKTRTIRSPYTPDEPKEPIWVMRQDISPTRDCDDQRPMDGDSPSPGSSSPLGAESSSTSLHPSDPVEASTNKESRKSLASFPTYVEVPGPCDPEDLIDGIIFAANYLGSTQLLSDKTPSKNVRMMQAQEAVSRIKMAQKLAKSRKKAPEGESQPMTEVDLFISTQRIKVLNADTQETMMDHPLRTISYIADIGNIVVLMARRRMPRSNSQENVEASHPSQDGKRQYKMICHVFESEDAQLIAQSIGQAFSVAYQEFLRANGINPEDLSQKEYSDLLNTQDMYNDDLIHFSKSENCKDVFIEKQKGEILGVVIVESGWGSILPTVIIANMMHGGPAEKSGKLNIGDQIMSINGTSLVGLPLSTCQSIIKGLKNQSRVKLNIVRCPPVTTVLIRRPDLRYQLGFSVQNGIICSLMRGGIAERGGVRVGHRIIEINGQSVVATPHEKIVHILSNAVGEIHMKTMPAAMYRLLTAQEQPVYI", "assay_type": "protein assay"}, "[8]": {"biological_target": "T3, Voltage-gated N-type calcium channel alpha-1B subunit/Amyloid beta A4 precursor protein-binding family A member 1", "assay_type": "protein assay", "remark": "listed apart in the source"}, "[9]": {"biological_target": "T4, Dual specificity protein phosphatase 3 (Homo sapiens, UniProt P51452)", "T4 sequence (P51452 whole entry)": "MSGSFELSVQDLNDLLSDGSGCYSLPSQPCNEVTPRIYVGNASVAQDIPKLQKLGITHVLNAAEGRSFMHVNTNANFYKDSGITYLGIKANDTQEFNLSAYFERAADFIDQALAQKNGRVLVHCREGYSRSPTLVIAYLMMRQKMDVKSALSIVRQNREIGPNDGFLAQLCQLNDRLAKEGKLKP", "test": "VHR1 phosphatase inhibitors, biochemical (AID 1878)"}, "Albumin": {"biological_target": "Albumin (Bos taurus, UniProt P02769)", "test": "Counterscreen for inhibitors of T-cell receptor (TCR)-CD3 interaction: Fluorescence-based biochemical high throughput dose response assay to identify inhibitors of T-cell receptor (TCR)-CD3 interaction using a TAMRA-labeled BSA probe.", "assay_type": "functional"}, "[10]": {"biological_target": "T4, Dual specificity protein phosphatase 3", "test": "VHR1 phosphatase inhibitors, primary screen, biochemical, absorbance, uHTS (AID 1654)"}, "[11]": {"test": "inhibitors of firefly luciferase expression or activity, dose response, H4 neuroglioma cells, luminescence (AID 1990)", "assay_type": "functional, cell-based"}, "[12]": {"biological_target": "T5, Type-1 angiotensin II receptor (Homo sapiens, UniProt P30556)", "T5 sequence (P30556 whole entry)": "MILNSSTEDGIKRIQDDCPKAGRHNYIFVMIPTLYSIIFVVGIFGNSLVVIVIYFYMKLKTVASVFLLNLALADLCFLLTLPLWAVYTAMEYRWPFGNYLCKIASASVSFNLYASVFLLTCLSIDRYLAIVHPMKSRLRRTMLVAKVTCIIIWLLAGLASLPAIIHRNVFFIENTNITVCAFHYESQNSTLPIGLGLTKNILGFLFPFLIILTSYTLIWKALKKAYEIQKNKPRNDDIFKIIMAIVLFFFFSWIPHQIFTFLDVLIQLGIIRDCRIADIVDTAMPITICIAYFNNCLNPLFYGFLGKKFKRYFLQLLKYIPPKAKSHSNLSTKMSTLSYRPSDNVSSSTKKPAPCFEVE", "test": "AT1 receptor antagonists, dose response, selectivity assay for APJ receptor antagonist project, cell-based, uHTS hits (AID 463214)", "assay_type": "functional"}, "Beta-galactosidase [13]": {"biological_target": "T6, Beta-galactosidase (Escherichia coli, UniProt Q8VNN2)", "T6 sequence (Q8VNN2 whole entry)": "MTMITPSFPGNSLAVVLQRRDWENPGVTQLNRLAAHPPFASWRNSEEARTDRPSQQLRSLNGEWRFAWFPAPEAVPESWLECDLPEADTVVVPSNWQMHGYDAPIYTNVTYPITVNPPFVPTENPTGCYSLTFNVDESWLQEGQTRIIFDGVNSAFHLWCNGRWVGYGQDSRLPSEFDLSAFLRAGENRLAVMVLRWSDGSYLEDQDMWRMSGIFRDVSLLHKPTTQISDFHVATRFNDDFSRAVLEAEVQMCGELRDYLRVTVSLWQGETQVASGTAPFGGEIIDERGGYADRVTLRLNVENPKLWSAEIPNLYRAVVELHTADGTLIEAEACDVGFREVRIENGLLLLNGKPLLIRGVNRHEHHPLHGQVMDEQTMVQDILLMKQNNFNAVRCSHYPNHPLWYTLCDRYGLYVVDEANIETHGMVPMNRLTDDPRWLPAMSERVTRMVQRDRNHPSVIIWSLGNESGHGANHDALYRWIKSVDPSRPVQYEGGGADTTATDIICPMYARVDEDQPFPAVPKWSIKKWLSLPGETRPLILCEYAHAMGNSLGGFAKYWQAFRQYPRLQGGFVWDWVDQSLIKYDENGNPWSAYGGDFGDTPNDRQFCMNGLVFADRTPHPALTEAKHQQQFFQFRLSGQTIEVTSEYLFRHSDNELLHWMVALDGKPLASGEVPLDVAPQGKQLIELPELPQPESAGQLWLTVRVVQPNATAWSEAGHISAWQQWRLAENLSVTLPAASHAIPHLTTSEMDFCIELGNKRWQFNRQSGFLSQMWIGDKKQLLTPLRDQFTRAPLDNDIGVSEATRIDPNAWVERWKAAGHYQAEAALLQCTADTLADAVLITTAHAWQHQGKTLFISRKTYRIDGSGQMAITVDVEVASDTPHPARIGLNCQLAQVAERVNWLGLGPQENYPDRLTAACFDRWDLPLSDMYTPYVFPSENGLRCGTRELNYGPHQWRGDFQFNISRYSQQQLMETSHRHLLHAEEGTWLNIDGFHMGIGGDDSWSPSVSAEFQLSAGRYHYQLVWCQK", "test": "PubChem AID 485352", "assay_type": "functional"}, "Beta-galactosidase [14]": {"biological_target": "T6, Beta-galactosidase", "test": "Dose response counterscreen for EBI2 assay utilizing the enzyme, b-galactosidase.", "assay_type": "functional"}, "HEK293": {"test_system": "HEK293", "test": "inhibitors of LMP1-driven NF-kB reporter, dose response, cell-based, HEK293, luciferase, cherry-pick (AID 588343)", "assay_type": "functional", "conditions": "Homo sapiens"}, "[15]": {"test": "inhibitors of SNCA 5'UTR-driven reporter translation, confirmation, H4 neuroglioma cells, luminescence (AID 1988)", "assay_type": "functional, cell-based"}, "Vero [16]": {"test_system": "Vero", "test": "cells", "assay_type": "functional, cell-based", "conditions": "Chlorocebus sabaeus"}, "Nonstructural protein 1": {"biological_target": "Nonstructural protein 1 (Influenza A virus, UniProt Q194T2)", "assay_type": "functional, Influenza A virus (A/California/07/2009(H1N1))"}, "[17]": {"test": "Luminescence Cell-Based Dose Response HTS to Identify Inhibitors of 5'UTR Stem-Loop Driven Prion Protein mRNA Translation in H4 Neuroglioblastoma Cells. [Related pubchem assays: 1827 (Project Summary), 1813 (Primary HTS)]", "assay_type": "functional"}, "INS1": {"test_system": "INS1", "test": "beta cell apoptosis inhibitors, cytokine rescue, dose response, luminescence, retest (AID 449756)", "assay_type": "functional, cell-based", "conditions": "Rattus norvegicus"}, "Vero [18]": {"test_system": "Vero", "test": "cells", "assay_type": "functional", "conditions": "Chlorocebus sabaeus"}}, "note": "The source made the active and inactive calls.", "data": [{"smiles": "COc1cc2c(cc1OC)C(COc1ccc(F)cc1)NCC2", "note": "(stereo not given)", "values": [{"measurement": "AC50", "setting": "[1]", "result": "25.2 µM (active)"}]}, {"smiles": "CN1C2C=C(N(CCc3c[nH]c4ccccc34)C(=O)c3ccc(Cl)cc3)CC1CC2", "note": "(stereo not given)", "values": [{"measurement": "AC50", "setting": "Cytochrome P450 2C19", "result": "5.01 µM (inconclusive)"}, {"measurement": "EC50", "setting": "[2]", "result": "0.211 µM (active)"}, {"measurement": "EC50", "setting": "Mu-type opioid receptor", "result": "47.9 µM (inactive)"}, {"measurement": "EC50", "setting": "[3]", "result": "> 92.5 µM (inactive)"}, {"measurement": "EC50", "setting": "[4]", "result": "0.596 µM (active)"}, {"measurement": "EC50", "setting": "[5]", "result": "> 92.5 µM (inactive)"}, {"measurement": "AC50", "setting": "Cytochrome P450 3A4", "result": "17.8 µM (inconclusive)"}]}, {"smiles": "Cc1cc(=O)oc2cc(OCC(=O)N/N=C/c3cc([N+](=O)[O-])ccc3O)ccc12", "values": [{"measurement": "IC50", "setting": "[6]", "result": "24 µM (active)"}, {"measurement": "IC50", "setting": "[7]", "result": "> 56.8 µM (not active)"}, {"measurement": "IC50", "setting": "[8]", "result": "> 50 µM (inactive)"}, {"measurement": "IC50", "setting": "[9]", "result": "2.6 µM (active)"}, {"measurement": "IC50", "setting": "Albumin", "result": "> 94.1 µM (inactive)"}, {"measurement": "IC50", "setting": "[10]", "result": "4.25 µM (active)"}]}, {"smiles": "C/C(=N/NC(=O)c1ccc(C(C)(C)C)cc1)c1ccccn1", "values": [{"measurement": "EC50", "setting": "[11]", "result": "3.75 µM (active)"}, {"measurement": "IC50", "setting": "[12]", "result": "3.48 µM (active)"}, {"measurement": "EC50", "setting": "Beta-galactosidase [13]", "result": "> 40 µM (inactive)"}, {"measurement": "IC50", "setting": "Beta-galactosidase [14]", "result": "> 80 µM (inactive)"}, {"measurement": "AC50", "setting": "HEK293", "result": "1.31 µM (active)"}, {"measurement": "EC50", "setting": "[15]", "result": "0.455 µM (active)"}, {"measurement": "IC50", "setting": "Vero [16]", "result": "> 25 µM (active)"}, {"measurement": "IC50", "setting": "Nonstructural protein 1", "result": "6.97 µM (active)"}, {"measurement": "EC50", "setting": "[17]", "result": "0.585 µM (active)"}, {"measurement": "AC50", "setting": "INS1", "result": "0.497 µM (active)"}, {"measurement": "CC50", "setting": "Vero [18]", "result": "2.62 µM (active)"}]}]}
